Toxic doses and inconclusive results are not listed. No stated cut-off is given here; in the data, active means T/C of 150% or more; inactive means T/C below 125%.
System: L1210 leukemia ip in BDF1 mice, survival T/C
Test: NCI In Vivo Anticancer Drug Screen. Data for tumor model L1210 Leukemia (intraperitoneal) in B6D2F1 (BDF1) mice
Details: endpoint: mean survival time, higher = longer survival
Method in brief: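 Antitumor effect is assessed in tumor-bearing animals. Survival in the compound arm is compared with a vehicle-dosed control arm and expressed as their quotient.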

[1] = dose: 100.0 mg/kg/injection, schedule: Q01DX001 (ip), vehicle: Klucel (hydroxypropylcellulose) (HPC)
[2] = dose: 100.0 mg/kg/injection, schedule: Q01DX009 (ip), vehicle: Klucel (hydroxypropylcellulose) (HPC)
[3] = dose: 200.0 mg/kg/injection, schedule: Q01DX001 (ip), vehicle: Klucel (hydroxypropylcellulose) (HPC)
[4] = dose: 200.0 mg/kg/injection, schedule: Q01DX009 (ip), vehicle: Klucel (hydroxypropylcellulose) (HPC)
[5] = dose: 400.0 mg/kg/injection, schedule: Q01DX001 (ip), vehicle: Klucel (hydroxypropylcellulose) (HPC)
[6] = dose: 400.0 mg/kg/injection, schedule: Q01DX009 (ip), vehicle: Klucel (hydroxypropylcellulose) (HPC)
[7] = dose: 50.0 mg/kg/injection, schedule: Q01DX001 (ip), vehicle: saline
[8] = dose: 100.0 mg/kg/injection, schedule: Q01DX001 (ip), vehicle: saline
[9] = dose: 200.0 mg/kg/injection, schedule: Q01DX001 (ip), vehicle: saline
[10] = dose: 400.0 mg/kg/injection, schedule: Q01DX001 (ip), vehicle: saline
[11] = dose: 100.0 mg/kg/injection, schedule: Q01DX009 (ip), vehicle: saline with Tween-80
[12] = dose: 200.0 mg/kg/injection, schedule: Q01DX009 (ip), vehicle: saline with Tween-80

Measured: T/C

COc1ccc(C(=O)C(C)CC(=O)O)cc1OC (stereo not drawn)
inactive: dose: 75.0 mg/kg/injection, schedule: Q01DX009 (ip), vehicle: Klucel (hydroxypropylcellulose) (HPC) 102 % of control | dose: 150.0 mg/kg/injection, schedule: Q01DX009 (ip), vehicle: Klucel (hydroxypropylcellulose) (HPC) 94 % of control | dose: 300.0 mg/kg/injection, schedule: Q01DX009 (ip), vehicle: Klucel (hydroxypropylcellulose) (HPC) 91 % of control

CC(=N/Nc1ccccc1)/C(C)=N/Nc1ccccc1
inactive: [1] 101 % of control | [2] 88 % of control | [3] 91 % of control | [4] 95 % of control | [5] 102 % of control | [6] 98 % of control

CN(C)C(=S)S
inactive: [7] 100 % of control | dose: 50.0 mg/kg/injection, schedule: Q04DX002 (ip), vehicle: Klucel (hydroxypropylcellulose) (HPC) 103 % of control | [8] 100 % of control | dose: 100.0 mg/kg/injection, schedule: Q04DX002 (ip), vehicle: Klucel (hydroxypropylcellulose) (HPC) 103 % of control | [9] 100 % of control | dose: 200.0 mg/kg/injection, schedule: Q04DX002 (ip), vehicle: Klucel (hydroxypropylcellulose) (HPC) 100 % of control | [10] 100 % of control | dose: 400.0 mg/kg/injection, schedule: Q04DX002 (ip), vehicle: Klucel (hydroxypropylcellulose) (HPC) 96 % of control

CC(=O)/C=C(\C)OB(F)F
inactive: [7] 98 % of control | [8] 95 % of control

[N-]=[N+]=Nc1ccc(-c2nc(N)nc(N)n2)cc1
inactive: dose: 50.0 mg/kg/injection, schedule: Q01DX009 (ip), vehicle: saline 90 % of control | dose: 100.0 mg/kg/injection, schedule: Q01DX009 (ip), vehicle: saline 90 % of control | dose: 100.0 mg/kg/injection, schedule: Q04DX003 (ip), vehicle: acetone 100 % of control | dose: 200.0 mg/kg/injection, schedule: Q01DX009 (ip), vehicle: saline 98 % of control | dose: 200.0 mg/kg/injection, schedule: Q04DX003 (ip), vehicle: acetone 97 % of control | dose: 400.0 mg/kg/injection, schedule: Q04DX003 (ip), vehicle: acetone 90 % of control

CCCCCCCCCCCCCCn1cnc2ncnc(Cl)c21
inactive: dose: 12.5 mg/kg/injection, schedule: Q01DX005 (ip), vehicle: other 104 % of control | dose: 25.0 mg/kg/injection, schedule: Q01DX005 (ip), vehicle: other 104 % of control | dose: 50.0 mg/kg/injection, schedule: Q01DX005 (ip), vehicle: other 103 % of control | dose: 100.0 mg/kg/injection, schedule: Q01DX005 (ip), vehicle: other 101 % of control | dose: 200.0 mg/kg/injection, schedule: Q01DX005 (ip), vehicle: other 96 % of control

C=C(Cl)CSCCS
inactive: dose: 100.0 mg/kg/injection, schedule: Q04DX003 (ip), vehicle: saline with Tween-80 95 % of control | dose: 200.0 mg/kg/injection, schedule: Q04DX003 (ip), vehicle: saline with Tween-80 106 % of control

CC1CC([O-])=N/[N+]1=C/c1ccc(N(C)C)cc1 (stereo not drawn)
inactive: dose: 80.0 mg/kg/injection, schedule: Q01DX001 (ip), vehicle: saline with Tween-80 98 % of control | dose: 160.0 mg/kg/injection, schedule: Q01DX001 (ip), vehicle: saline with Tween-80 98 % of control | dose: 320.0 mg/kg/injection, schedule: Q01DX001 (ip), vehicle: saline with Tween-80 92 % of control

O=C(Nc1ccc(S(=O)(=O)NC2CCCCC2)cc1)Oc1ccc([N+](=O)[O-])cc1
inactive: [8] 96 % of control | [9] 100 % of control | [10] 100 % of control

CCCCS(=O)(=O)N1CCCCC1C (stereo not drawn)
inactive: dose: 25.0 mg/kg/injection, schedule: Q04DX002 (ip), vehicle: saline with Tween-80 96 % of control | dose: 50.0 mg/kg/injection, schedule: Q04DX002 (ip), vehicle: saline with Tween-80 96 % of control | dose: 100.0 mg/kg/injection, schedule: Q04DX002 (ip), vehicle: saline with Tween-80 86 % of control

CCOC(=O)CNC(=O)Nc1ccc(C(=O)O)cc1
inactive: [11] 93 % of control | [12] 100 % of control

O=C1CCC(=O)N1CC(O)COc1ccccc1 (stereo not drawn)
inactive: [11] 101 % of control | dose: 100.0 mg/kg/injection, schedule: Q04DX003 (ip), vehicle: Klucel (hydroxypropylcellulose) (HPC) 93 % of control | [12] 101 % of control | dose: 200.0 mg/kg/injection, schedule: Q04DX003 (ip), vehicle: Klucel (hydroxypropylcellulose) (HPC) 97 % of control | dose: 400.0 mg/kg/injection, schedule: Q01DX009 (ip), vehicle: saline with Tween-80 110 % of control | dose: 400.0 mg/kg/injection, schedule: Q04DX003 (ip), vehicle: Klucel (hydroxypropylcellulose) (HPC) 106 % of control

O=c1nc2n(c(=O)[nH]1)CCN2
inactive: dose: 50.0 mg/kg/injection, schedule: Q01DX001 (ip), vehicle: carboxymethylcellulose (CMC) 101 % of control | dose: 100.0 mg/kg/injection, schedule: Q01DX001 (ip), vehicle: carboxymethylcellulose (CMC) 101 % of control | dose: 200.0 mg/kg/injection, schedule: Q01DX001 (ip), vehicle: carboxymethylcellulose (CMC) 104 % of control | dose: 400.0 mg/kg/injection, schedule: Q01DX001 (ip), vehicle: carboxymethylcellulose (CMC) 106 % of control

CN(C)N=Nc1c(O)ccc2c1CCC1C2CCC2(C)C(=O)CCC12 (stereo not drawn)
inactive: dose: 12.5 mg/kg/injection, schedule: Q01DX009 (ip), vehicle: Klucel (hydroxypropylcellulose) (HPC) 92 % of control | dose: 25.0 mg/kg/injection, schedule: Q01DX009 (ip), vehicle: Klucel (hydroxypropylcellulose) (HPC) 94 % of control | dose: 50.0 mg/kg/injection, schedule: Q01DX009 (ip), vehicle: Klucel (hydroxypropylcellulose) (HPC) 107 % of control

Cc1cccc(C)c1NC(=O)Nc1ccc(C(=O)O)c(O)c1
inactive: [2] 110 % of control | [4] 95 % of control | [6] 97 % of control

CCCCCCCCCC(=O)N/N=C/c1ccccc1O
inactive: [2] 93 % of control | [4] 101 % of control | [6] 105 % of control

COc1ccccc1NNS(=O)(=O)c1cccc([N+](=O)[O-])c1
inactive: dose: 75.0 mg/kg/injection, schedule: Q04DX003 (ip), vehicle: Klucel (hydroxypropylcellulose) (HPC) 104 % of control | [1] 100 % of control | dose: 150.0 mg/kg/injection, schedule: Q04DX003 (ip), vehicle: Klucel (hydroxypropylcellulose) (HPC) 94 % of control | [3] 103 % of control | dose: 300.0 mg/kg/injection, schedule: Q04DX003 (ip), vehicle: Klucel (hydroxypropylcellulose) (HPC) 104 % of control | [5] 105 % of control
